Holding throughout (format): cell-based
Assay [1] deals with ypt1^ts cells. Description: Rescue of growth of ypt1^ts mutant yeast (OD600). The settings on record: Saccharomyces cerevisiae, read-out: Ypt1-ts MRC (Minimum Rescue Concentration), ypt1^ts cells, 35° C. and 37° C., OD600; multiple results separated by a comma. The source says:
The activity of the compounds as modulators of protein trafficking may be measured in the assays described herein that evaluate the ability of a compound to rescue an impairment in protein trafficking. For example, the yeast mutant cell line ypt1^ts can be used to identify compounds that rescue cells from the lethal phenotype of a mutant YPT1 allele (see, e.g., Examples and Schmitt et al. (1988) Cell 53:635-47). The activity may be measured, for example, in a whole yeast cell assay using 384-well screening protocol and an optical density measurement.
The yeast mutant cell line ypt1^ts suppresses, in a temperature dependent fashion, the dominant-lethal phenotype of a mutant YPT1 allele (Schmitt et al. (1988) Cell 53:635-47). The yeast mutant cell line ypt1^ts contains an allele of YPT1 that has two point mutations: one that changes an asparagine at position 121 to a isoleucine (N121I) and another that changes an alanine at position 161 to a valine (A161V). The N121I mutation causes dominant lethality by itself, but lethality is suppressed by the second mutation, resulting in a recessive loss of function phenotype at the restrictive temperatures. ypt1^ts cells grow normally at temperatures up to 25° C., but are growth arrested at 37° C. (Id.).
Compounds were screened to assess their ability to restore growth of ypt1^ts cells. The effect of the compounds was measured on ypt1^ts cells cultured at room temperature (permissive temperature), 37° C. (non-permissive temperature), and 35° C. (semi-permissive temperature).
To determine if the test compounds could rescue the ypt1^ts mutant phenotype, ypt1^ts cells were grown overnight in synthetic complete (SC) media supplemented with 2% glucose at room temperature. Log phase cells were diluted into SC 2% glucose media to an OD600 of 0.003. 100 μL of this culture was then aliquoted into each well of 96-well flat bottom microtiter plates. 1 μL of the test compounds dissolved in DMSO (at a concentration range from 5 mM-0.005 mM) or of DMSO alone was added to each well (50 μM-0.05 μM final concentration in 1% DMSO). Plates were mixed by vortexing and incubated at 35° C. and 37° C. Compound rescue of the ypt1^ts temperature sensitive defect was assessed by measuring the OD600 (optical density at 600 nm; cell growth) of the cultures. Plates incubated at 35° C. were measured at 24 and 40 hours incubation time while plates grown at 37° C. were measured after 40 hours of incubation.
Assays monitoring the rescue of ypt1^ts mutants were performed using a vehicle, a positive control (calcium), and the compounds identified in Table II. Results in Table II corresponding to an MRC (Minimum Rescue Concentration) for ypt1^ts of greater than or equal to 50 micromolar are labeled +; of an MRC for ypt1^ts of 10-50 micromolar are labeled ++; and of an MRC for ypt1^ts of less than 10 micromolar are labeled +++. Multiple results for a particular compound are separated by a comma.

In assay [2] the target is T1, ΔF508 CFTR (Homo sapiens, UniProt P13569, DEL508-508). Briefly: Corrector activity, YFP halide (iodide) quenching assay in FRT cells expressing ΔF508 CFTR. More on the design: expressed in transfected cells; host or cells: Fischer rat thyroid (FRT) cells. The settings on record: 24 hours with compound at 37° C., forskolin and genistein. In short, it runs like this: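 FRT cells co-expressing ΔF508 CFTR and halide-sensitive YFP were incubated 24 h at 37° C with compounds, then stimulated 30 min at 37° C in PBS with forskolin and genistein. Endpoint fluorescence after iodide injection was normalized to initial reading; EC50 from 4-parameter fit with bottom constrained to DMSO control.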
T1 sequence (P13569 with tags, fused parts or gaps DEL508-508): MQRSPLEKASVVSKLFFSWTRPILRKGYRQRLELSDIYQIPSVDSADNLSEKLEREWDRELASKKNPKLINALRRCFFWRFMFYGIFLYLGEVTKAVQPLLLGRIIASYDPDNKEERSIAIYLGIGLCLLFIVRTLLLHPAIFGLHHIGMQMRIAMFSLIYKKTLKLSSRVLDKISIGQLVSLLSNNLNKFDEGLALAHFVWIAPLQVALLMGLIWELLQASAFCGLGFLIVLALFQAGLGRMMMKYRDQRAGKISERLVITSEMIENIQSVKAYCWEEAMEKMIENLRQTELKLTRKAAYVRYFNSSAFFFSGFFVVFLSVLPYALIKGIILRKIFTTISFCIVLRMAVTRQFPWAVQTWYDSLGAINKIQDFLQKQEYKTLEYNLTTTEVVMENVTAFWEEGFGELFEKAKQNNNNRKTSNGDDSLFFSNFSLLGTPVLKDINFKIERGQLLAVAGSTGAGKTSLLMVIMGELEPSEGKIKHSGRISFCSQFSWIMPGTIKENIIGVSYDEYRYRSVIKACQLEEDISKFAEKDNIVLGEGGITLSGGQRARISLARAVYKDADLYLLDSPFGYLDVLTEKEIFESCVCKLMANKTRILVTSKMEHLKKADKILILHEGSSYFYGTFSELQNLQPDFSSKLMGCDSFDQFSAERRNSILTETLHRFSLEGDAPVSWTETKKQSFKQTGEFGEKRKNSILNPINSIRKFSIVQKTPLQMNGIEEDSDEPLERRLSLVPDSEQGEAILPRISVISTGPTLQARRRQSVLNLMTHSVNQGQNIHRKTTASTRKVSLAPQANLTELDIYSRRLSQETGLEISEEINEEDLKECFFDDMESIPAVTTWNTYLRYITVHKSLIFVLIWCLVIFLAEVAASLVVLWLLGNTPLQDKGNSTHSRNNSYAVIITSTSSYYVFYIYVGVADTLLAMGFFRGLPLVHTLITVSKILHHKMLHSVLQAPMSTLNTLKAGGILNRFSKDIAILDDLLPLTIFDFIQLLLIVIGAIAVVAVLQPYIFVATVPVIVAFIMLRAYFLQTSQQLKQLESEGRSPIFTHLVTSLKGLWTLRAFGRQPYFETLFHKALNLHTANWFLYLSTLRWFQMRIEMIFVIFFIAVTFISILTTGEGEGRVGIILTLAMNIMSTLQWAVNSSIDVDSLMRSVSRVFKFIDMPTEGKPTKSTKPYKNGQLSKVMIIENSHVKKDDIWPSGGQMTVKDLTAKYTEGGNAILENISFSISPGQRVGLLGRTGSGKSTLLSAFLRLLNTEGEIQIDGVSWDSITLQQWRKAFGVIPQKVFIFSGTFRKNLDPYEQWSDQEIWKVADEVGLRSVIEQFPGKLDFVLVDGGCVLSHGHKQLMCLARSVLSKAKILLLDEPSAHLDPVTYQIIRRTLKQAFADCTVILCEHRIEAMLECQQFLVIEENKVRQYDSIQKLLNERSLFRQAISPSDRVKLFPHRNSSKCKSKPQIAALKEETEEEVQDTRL

The target of assay [3] is T1, ΔF508 CFTR. Briefly: Potentiator activity, YFP halide (iodide) quenching assay in FRT cells expressing ΔF508 CFTR, 27° C. pre-incubation. More on the design: expressed in transfected cells; host or cells: Fischer rat thyroid (FRT) cells. The settings on record: FRT cells ΔF508 CFTR/YFP, 24 hours at 27° C., compound with forskolin 30 min. In short, it runs like this: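 FRT cells stably co-expressing ΔF508 CFTR and halide-sensitive YFP, grown 24 h at 37° C. then 24 h at 27° C. to raise surface CFTR. Compounds in PBS with forskolin, 30 min at 37° C.; iodide injected and YFP quenching (ex 485/em 530 nm) followed. EC50 from normalized endpoint fluorescence.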

Setting [4] is: FRT cells ΔF508 CFTR/YFP, read-out: Corrector EC50.
Where [5] appears, read: Corrector EC50, FRT cells ΔF508 CFTR/YFP.

We go through 38 compounds from patent publication US20100331297A1, “MODULATION OF PROTEIN TRAFFICKING” (FOLDRX PHARMACEUTICALS, INC., priority 2007, published 2010).

Structures are written as SMILES.

As for `Nc1ncnc2c1c(Cc1cccc3ccccc13)nn2C1CCCC1` [compound 77], the minimal effective concentration in assay [1] was < 10 µM. Also, the half-maximal effective concentration (EC50) in assay [2] (setting [4]) was > 15 µM.

`CCn1nc(-c2ccc(Cl)cc2)c2c(N)ncnc21` [compound 31]: in assay [1], the minimal effective concentration is < 10 µM. Moreover, the EC50 in assay [3] was > 15 µM; in assay [2] (setting [4]), 5 to 10 µM.

As to `Cn1nc(-c2ccc(Cl)cc2)c2c(N)ncnc21` [compound 1], in assay [1], the minimal effective concentration is > 50 µM. For the same compound, in assay [2] (setting [4]), the EC50 was > 15 µM.

As for `CCn1nc(-c2ccc(Cl)cc2)c2c(NC(C)=O)ncnc21` [compound 53], the minimal effective concentration in assay [1] is > 50 µM. In addition, the EC50 in assay [2] (setting [4]) lay within 5 to 10 µM.

For the compound `C#CCn1nc(-c2ccc(Cl)cc2)c2c(N)ncnc21` [compound 30], the minimal effective concentration in assay [1] is > 50 µM. Besides, the EC50 in assay [2] (setting [4]) is > 15 µM.

As for `CC(=O)Nc1ncnc2c1c(-c1ccc(Cl)cc1)nn2C(C)(C)C` [Compound No. 2, N-[1-tert-Butyl-3-(4-chloro-phenyl)-1H-pyrazolo[3,4-d]pyrimidin-4-yl]-acetamide], the minimal effective concentration in assay [1] was > 50 µM. The EC50 was < 2 µM in assay [3] and 5 to 10 µM in assay [2] (setting [4]).

As for `Nc1ncnc2c1c(-c1ccc(Cl)cc1)nn2CC1CC1` [compound 29, 3-(4-Chloro-phenyl)-1-cyclopropylmethyl-1H-pyrazolo[3,4-d]pyrimidin-4-ylamine], in assay [1], the minimal effective concentration was < 10 µM. The EC50 in assay [2] (setting [4]) fell in the range of 5 to 10 µM.

For `Nc1ncnc2c1c(-c1ccc(Cl)cc1)nn2-c1ccccc1` [compound 4], the minimal effective concentration in assay [1] is > 50 µM. The EC50 in assay [2] (setting [4]) was > 15 µM.

As for `CNC(=O)c1cnc2c(c(-c3ccc(C)cc3)nn2C(C)(C)C)c1N` [compound 47], in assay [1], the minimal effective concentration is > 50 µM. For the same compound, the concentration for a half-maximal effect (EC50) in assay [3] and in assay [2] (setting [4]) was > 15 µM each time.

For `C=CCn1nc(-c2ccc(Cl)cc2)c2c(N)ncnc21` [compound 32], the minimal effective concentration in assay [1] is > 50 µM. For the same compound, in assay [2] (setting [4]), the 50% effective concentration (EC50) was > 15 µM.

With `CC(C)(C)n1nc(-c2cccc(Cl)c2)c2c(N)ncnc21` [compound 10], the minimal effective concentration in assay [1] was > 50 µM. Further, the EC50 was < 2 µM in assay [3] and > 15 µM in assay [2] (setting [4]).

Regarding `CCn1nc(-c2ccc(C)cc2)c2c(N)cccc21` [compound 44, 1-Ethyl-3-p-tolyl-1H-indazol-4-ylamine], the minimal effective concentration in assay [1] was > 50 µM. For the same compound, the EC50 in assay [3] and in assay [2] (setting [4]) was > 15 µM in each case.

With `CCn1nc2cccc(N)c2c1-c1ccc(C)cc1` [compound 80], the minimal effective concentration in assay [1] was > 50 µM. Further, the EC50 in assay [3] and in assay [2] (setting [4]) was > 15 µM in each case.

With `CC(C)(C)n1nc(-c2ccc(F)cc2)c2c(NC(=O)c3ccccc3)ncnc21` [compound 40, N-[1-tert-Butyl-3-(4-fluoro-phenyl)-1H-pyrazolo[3,4-d]pyrimidin-4-yl]-benzamide], in assay [1], the minimal effective concentration was > 50 µM. For the same compound, the EC50 in assay [2] (setting [4]) was > 15 µM.

`Nc1ncnc2c1c(-c1ccc(Cl)cc1)nn2C1CCC1` [compound 33]: the minimal effective concentration in assay [1] is 10 to 50 µM. In addition, the EC50 in assay [3] is < 2 µM; in assay [2] (setting [4]), 5 to 10 µM.

For the compound `Nc1ncnc2c1c(Cc1cccc3ccccc13)nn2C1CCC1` [compound 74], the minimal effective concentration in assay [1] is < 10 µM. The EC50 in assay [2] (setting [4]) was > 15 µM.

For `Nc1ncnc2c1c(-c1ccc(Cl)cc1)nn2C1CCCC1` [compound 34], the minimal effective concentration in assay [1] fell in the range of 10 to 50 µM. In addition, in assay [3], the half-maximal effective concentration (EC50) was < 2 µM.

Consider `Nc1ncnc2c1c(-c1ccc(Cl)cc1)nn2C1CCCCC1` [compound 3], for which the minimal effective concentration in assay [1] was > 50 µM. For the same compound, in assay [2] (setting [4]), the concentration giving a half-maximal response (EC50) was > 15 µM.

On to `CCn1cc(-c2ccc(C)cc2)c2c(N)cccc21` [compound 43, 1-Ethyl-3-p-tolyl-1H-indol-4-ylamine], for which the minimal effective concentration in assay [1] is > 50 µM. For the same compound, the EC50 in assay [3] and in assay [2] (setting [4]) was > 15 µM throughout.

For the compound `CC(C)(C)n1nc(-c2cc3ccccc3s2)c2c(N)ncnc21` [compound 16, 3-Benzo[b]thiophen-2-yl-1-tert-butyl-1H-pyrazolo[3,4-d]pyrimidin-4-ylamine], the minimal effective concentration in assay [1] is > 50 µM. In addition, the EC50 in assay [2] (setting [4]) is > 15 µM.

Turning to `CC(C)(C)n1nc(-c2ccccc2)c2c(N)ncnc21` [compound 8], the minimal effective concentration in assay [1] is > 50 µM. Moreover, the EC50 in assay [2] (setting [4]) is > 15 µM.

Take `CC(C)(C)n1nc(Cc2ccc(F)c3ccccc23)c2c(N)ncnc21` [compound 91]: the minimal effective concentration in assay [1] was < 10 µM.

As for `CC(C)(C)n1nc(Cc2ccccc2Cl)c2c(N)ncnc21` [compound 20], in assay [1], the minimal effective concentration was 10 to 50 µM.

Regarding `Cc1ccc(-c2nn(C(C)(C)C)c3ncc(C(=O)O)c(N)c23)cc1` [compound 45, 4-Amino-1-tert-butyl-3-p-tolyl-1H-pyrazolo[3,4-b]pyridine-5-carboxylic acid], the minimal effective concentration in assay [1] is > 50 µM.

As for `CC(C)n1nc(-c2ccc(Cl)cc2)c2c(N)ncnc21` [compound 27], in assay [1], the minimal effective concentration lay in the range of 10 to 50 µM. Further, the EC50 in assay [2] (setting [4]) was in the range of 2 to 5 µM.

On to `CC(C)(C)n1nc(-c2ccc(Cl)cc2)c2c(N)nc(CC3CC3)nc21` [compound 63], for which the minimal effective concentration in assay [1] is > 50 µM.

For `CC(C)(C)n1nc(-c2ccc(Cl)cc2)c2c(N)nc(C3CC3)nc21` [compound 62], the minimal effective concentration in assay [1] is > 50 µM.

Take `Cc1cc(-c2nn(C(C)(C)C)c3ncnc(N)c23)ccc1F` [compound 41]: the minimal effective concentration in assay [1] was > 50 µM. In addition, the half-maximal effective concentration (EC50) in assay [2] (setting [4]) is > 15 µM.

On to `CC(C)(C)n1nc(-c2cccc3ccccc23)c2c(N)ncnc21` [compound 6], for which the minimal effective concentration in assay [1] was 10 to 50 µM. In assay [2] (setting [5]), the EC50 is > 15 µM.

For the compound `Cc1nc(N)c2c(-c3ccc(Cl)cc3)nn(C(C)(C)C)c2n1` [compound 57], the minimal effective concentration in assay [1] was in the range of 10 to 50 µM.

Turning to `CC(c1ccccc1)c1nn(C(C)(C)C)c2ncnc(N)c12` (centres unmarked) [compound 49], the minimal effective concentration in assay [1] was 10 to 50 µM.

In the case of `CC(C)(C)n1nc(-c2ccc(C#N)cc2)c2c(N)ncnc21` [compound 35], the minimal effective concentration in assay [1] is > 50 µM.

As for `Cc1ccc(-c2nn(C(C)(C)C)c3ncnc(N)c23)cc1` [compound 24], the minimal effective concentration in assay [1] fell in the range of 10 to 50 µM. Further, the EC50 in assay [2] (setting [5]) lay within 2 to 5 µM.

On to `CC(C)(C)n1nc(Cc2cccc(Br)c2)c2c(N)ncnc21` [compound 58], for which the minimal effective concentration in assay [1] is < 10 µM.

Turning to `COc1ccc(-c2nn(C(C)(C)C)c3ncnc(N)c23)cc1` [compound 13], the minimal effective concentration in assay [1] was > 50 µM.

In the case of `C#Cc1cccc(Cc2nn(C(C)(C)C)c3ncnc(N)c23)c1` [compound 64], the minimal effective concentration in assay [1] lay in the range of 10 to 50 µM.

With `CC(C)Cn1nc(Cc2cccc3ccccc23)c2c(N)ncnc21` [compound 75], the minimal effective concentration in assay [1] is < 10 µM.

Regarding `Cc1ccc(-c2nn(C(C)(C)C)c3nccc(N)c23)cc1` [compound 69, 1-tert-Butyl-3-p-tolyl-1H-pyrazolo[3,4-b]pyridin-4-ylamine], the minimal effective concentration in assay [1] is > 50 µM.

A word on the EC50: it is the concentration needed to bring the measured effect to its halfway point.
